ChEMBL document CHEMBL1140186, “Hunter-killer peptide (HKP) for targeted therapy” (2008)
Calls of active or inactive are those of the source. No cut-off for these calls is given here. Bridge positions count the residues as written; N and C are the ends. Square brackets hold non-standard residues; d marks the D form. Peptide text beside a SMILES is read from it.

Assays:
Mus musculus [1] = species: Mus musculus; experiment: Increase in survival of transgenic mouse prostate adenocarcinoma model after 6 to 8 weeks; type: functional, organism-based; details: Prostate gland
Mus musculus [2] = experiment: Induction of weight loss in sc dosed high fat diet fed mouse after 4 weeks; type: functional
Mus musculus [3] = experiment: Reduction in epididymal fat pad size in sc dosed high fat diet fed mouse after 4 weeks relative to control; type: functional; parameters: scale not given: the % may be the effect or the level left
MDA-MB-435 = experiment: Antitumor activity against human MDA-MB-435 cells xenografted mouse assessed as survival after 120 days; type: functional

CC[C@H](C)[C@H](NC(=O)[C@H](CO)NC(=O)[C@H](CCSC)NC(=O)[C@@H](N)CO)C(=O)N[C@@H](C)C(=O)N[C@@H](CCCNC(=N)N)C(=O)N[C@@H](CC(C)C)C(=O)NCC(=O)NCC(=O)N[C@H](CCCCN)C(=O)N[C@H](CC(C)C)C(=O)N[C@H](C)C(=O)N[C@H](CCCCN)C(=O)N[C@H](CC(C)C)C(=O)N[C@H](C)C(=O)N[C@H](CCCCN)C(=O)N[C@H](CCCCN)C(=O)N[C@H](CC(C)C)C(=O)N[C@H](C)C(=O)N[C@H](CCCCN)C(=O)N[C@H](CC(C)C)C(=O)N[C@H](C)C(=O)N[C@H](CCCCN)C(=O)O (H-SMSIARLGG[dK][dL][dA][dK][dL][dA][dK][dK][dL][dA][dK][dL][dA][dK]-OH)
Activity (Mus musculus [1]): Active

CC(C)C[C@@H](NC(=O)[C@@H](CCCCN)NC(=O)CNC(=O)CNC(=O)[C@@H]1CSSC[C@H](N)C(=O)N[C@@H](CCCCN)C(=O)NCC(=O)NCC(=O)N[C@@H](CCCNC(=N)N)C(=O)N[C@@H](C)C(=O)N[C@@H](CCCCN)C(=O)N[C@@H](CC(=O)O)C(=O)N1)C(=O)N[C@H](C)C(=O)N[C@H](CCCCN)C(=O)N[C@H](CC(C)C)C(=O)N[C@H](C)C(=O)N[C@H](CCCCN)C(=O)N[C@H](CCCCN)C(=O)N[C@H](CC(C)C)C(=O)N[C@H](C)C(=O)N[C@H](CCCCN)C(=O)N[C@H](CC(C)C)C(=O)N[C@H](C)C(=O)N[C@H](CCCCN)C(=O)O (H-CKGGRAKDCGG[dK][dL][dA][dK][dL][dA][dK][dK][dL][dA][dK][dL][dA][dK]-OH; disulfide 1-9)
Activity (Mus musculus [2]): 30%
Activity (Mus musculus [3]): >70%

CC(C)C[C@@H](NC(=O)[C@@H](CCCCN)NC(=O)CNC(=O)CNC(=O)[C@@H]1CSSC[C@H](N)C(=O)N[C@@H](CC(N)=O)C(=O)NCC(=O)N[C@@H](CCCNC(=N)N)C(=O)N1)C(=O)N[C@H](C)C(=O)N[C@H](CCCCN)C(=O)N[C@H](CC(C)C)C(=O)N[C@H](C)C(=O)N[C@H](CCCCN)C(=O)N[C@H](CCCCN)C(=O)N[C@H](CC(C)C)C(=O)N[C@H](C)C(=O)N[C@H](CCCCN)C(=O)N[C@H](CC(C)C)C(=O)N[C@H](C)C(=O)N[C@H](CCCCN)C(=O)O (H-CNGRCGG[dK][dL][dA][dK][dL][dA][dK][dK][dL][dA][dK][dL][dA][dK]-OH; disulfide 1-5)
Survival (MDA-MB-435): 60%
